Measurements as given in patent publication US5466809A (Toronto Research Chemicals, Inc., priority 1994, dated 1995).
≈ marks a conversion by molar mass, not a printed value. Where “and” joins values, the source holds several entries; their conditions need not be identical. Identical values can stand only once. Like-named read-outs stand apart in the source and are kept apart here.

Experiments:
[1] = test system: N-linked oligosaccharide processing; experiment: L-PHA lectin sensitivity assay for inhibition of N-linked oligosaccharide processing; assay type: cell-based
Method: This test also indicates whether the compounds enter tumor cells and measures the degree of toxicity of the compounds for cells. The test is described in J. W. Dennis, Cancer Research 46:5131, 1986.
Essentially, 2×10^4 cells are placed in individual wells of a 96-well microtest plate, wherein the wells contain serial dilutions of the compounds to be tested. […] […] The cells are then harvested and the amount of radioactivity incorporated into the host cell DNA is measured in a liquid scintillation counter. The amount of radioactivity present in cells in wells in the absence of L-PHA reflects the toxicity of the test compound and the amount of radioactivity present in the presence of L-PHA reflects the level of inhibition of oligosaccharide processing induced by the test compound.

[2] = target: T1, Jack Bean alpha-mannosidase (Canavalia ensiformis, UniProt C0HJB3); experiment: Jack Bean alpha-mannosidase assay; assay type: biochemical; details: pH 6.0, 37° C., 30 minutes, p-nitrophenyl-alpha-D-mannopyranoside substrate; read-out: D50 Values (Inhibition), J.B. mannosidase (converted)
T1 sequence (C0HJB3 1-981): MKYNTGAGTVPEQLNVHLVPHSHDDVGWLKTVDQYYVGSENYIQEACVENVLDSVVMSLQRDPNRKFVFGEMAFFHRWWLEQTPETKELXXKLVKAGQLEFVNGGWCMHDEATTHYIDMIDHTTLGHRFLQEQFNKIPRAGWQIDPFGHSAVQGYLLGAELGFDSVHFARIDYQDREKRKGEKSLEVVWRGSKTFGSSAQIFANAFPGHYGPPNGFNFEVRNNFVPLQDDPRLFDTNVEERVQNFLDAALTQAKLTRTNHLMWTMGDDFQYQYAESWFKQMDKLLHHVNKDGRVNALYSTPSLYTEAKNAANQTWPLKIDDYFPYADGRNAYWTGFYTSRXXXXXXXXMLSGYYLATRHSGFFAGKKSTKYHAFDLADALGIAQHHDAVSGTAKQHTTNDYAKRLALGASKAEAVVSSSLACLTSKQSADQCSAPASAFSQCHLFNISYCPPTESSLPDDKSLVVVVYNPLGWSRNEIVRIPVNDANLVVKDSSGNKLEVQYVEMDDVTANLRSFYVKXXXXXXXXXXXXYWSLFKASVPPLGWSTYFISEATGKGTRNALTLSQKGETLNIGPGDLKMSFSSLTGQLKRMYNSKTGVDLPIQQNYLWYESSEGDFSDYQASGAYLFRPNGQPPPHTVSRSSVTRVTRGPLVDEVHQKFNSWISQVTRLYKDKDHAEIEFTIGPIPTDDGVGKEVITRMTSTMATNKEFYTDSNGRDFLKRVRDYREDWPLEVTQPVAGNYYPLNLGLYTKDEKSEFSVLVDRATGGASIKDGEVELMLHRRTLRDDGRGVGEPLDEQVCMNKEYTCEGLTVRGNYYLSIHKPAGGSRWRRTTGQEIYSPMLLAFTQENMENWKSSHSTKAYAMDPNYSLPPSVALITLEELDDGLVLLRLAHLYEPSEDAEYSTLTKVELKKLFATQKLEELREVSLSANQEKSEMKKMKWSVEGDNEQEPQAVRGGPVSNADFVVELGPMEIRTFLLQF
Method: Jack Bean alpha-Mannosidase Assay. […] A volume (37.5 ul) of 0.05M sodium acetate (pH 6.0) was added to each well, followed by 37.5 ul of 0.01M p-nitrophenyl-alpha-D-mannopyanoside, and then 10 ul of a 1:400 dilution of Jack Bean alpha-mannosidase. After thoroughly shaking to mix, the mixture was incubated at 37° C. for 30 minutes. The reaction was stopped by the addition of 150 ul of 0.5M sodium carbonate (pH 10.0). The absorbance at 405 nm of the solution in the wells was determined in an ELISA plate reader.

bone marrow cells [3] = experiment: In vivo bone marrow CFU formation and bone marrow cellularity, dose dependent effect; design: species or system C57BL/6 mice; details: for optimal dose / Effect on bone marrow cellularity and CFU formation compared with swainsonine (summary) / Effect on bone marrow cellularity and CFU formation (summary): summary of experiments; for Effect on bone marrow cellularity and CFU formation compared with swainsonine (summary): for 3 and 23 versus 10 μg swainsonine; for Mean of CFU Formation / Mean of Cellularity: 4 days
Excerpt: (§1) Assay for Bone Marrow Cell Proliferation Induced by Swansonine Analogues. Pathogen-free C57BL/6 mice at 8-14 weeks of age were quarantined for one week prior to their use in the experiments described below. Mice were inoculated intraperitoneally twice daily with a designated dose of swainsonine or an analogue of swainsonine for a period of four days. Eighteen hours following the last injection, the mice were sacrificed, bone marrow cells were obtained using standard technology (S. C. White et al., J. Natl. Cancer Inst. 83 1125, 1991). Cellularity of the bone marrow cells so obtained was determined by directly counting the cells after they were flushed from the femurs and tibia of the mice. The cells were processed according to the procedure described in the GIBCO-BRL Mouse Bone Stem Cell Proliferation Kit, and the number of colony forming units (CFU) was assessed using the procedures also described in the kit. For kinetic experiments, mice were administered 10 ug of the analogue (this was the optimum dose in all cases) twice daily for the designated number of days. The experiments were designed so that all regimens terminated on the same day. Eighteen hours after the last injection, the mice were sacrificed and bone marrow cells were obtained and processed as described above.

bone marrow cells [4] = experiment: In vivo bone marrow CFU formation and cellularity, time course (kinetic experiments); design: species or system C57BL/6 mice; details: 10 μg twice daily i.p.
Excerpt: as §1

[5] = L-PHA assay, 3H-thymidine incorporation, read-out: D50 Values (Inhibition), L-PHA assay
[6] = Expt. 1, 10 μg twice daily i.p.
[7] = Expt. 1, 20 μg twice daily i.p.
[8] = Expt. 1, 40 μg twice daily i.p.
[9] = Expt. 2, 10 μg twice daily i.p.

## CCCC(=O)O[C@@H]1CN2CCC[C@@H](O)[C@@H]2[C@@H]1O [Compound 3, 1S-8a-β-2-alpha-butanoyloxyoctahydroindolizine-1-alpha-8-β-diol]
[1]; 3H-thymidine incorporation, compared with swainsonine
  amount of radioactivity incorporated by cells: comparable to that of swainsonine
[1]; [5]
  IC50: 0.066 µg/mL (≈ 0.271 µM)
[2]
  IC50: 144 µM
Bone marrow cells [3]
  optimal dose: 10 µg
  Effect on bone marrow cellularity and CFU formation compared with swainsonine (summary): comparable to

## O=C(O[C@@H]1CN2CCC[C@@H](O)[C@@H]2[C@@H]1O)c1ccccc1 [Compound 5, 1S-8a-β-2-alpha-benzoyloxyoctahydroindolizine-1-alpha-8-β-diol]
[1]; [5]
  IC50: 0.5 µg/mL (≈ 1.8 µM)
Bone marrow cells [4]; 1 day
  Mean of CFU Formation: 250 CFU
  Mean of Cellularity: 3.00 × 10^7
Bone marrow cells [4]; 2 days
  Mean of CFU Formation: 436 CFU
  Mean of Cellularity: 4.18 × 10^7
Bone marrow cells [4]; 3 days
  Mean of CFU Formation: 568 CFU
  Mean of Cellularity: 5.59 × 10^7
Bone marrow cells [4]; 4 days
  Mean of CFU Formation: 623 CFU
  Mean of Cellularity: 7.42 × 10^7
Bone marrow cells [4]; 5 days
  Mean of CFU Formation: 621 CFU
  Mean of Cellularity: 6.88 × 10^7
Bone marrow cells [4]; 6 days
  Mean of CFU Formation: 518 CFU
  Mean of Cellularity: 5.24 × 10^7
[2]
  IC50: 252 µM
Bone marrow cells [3]; Expt. 1, 5 μg twice daily i.p.
  Mean of CFU Formation: 200 CFU
  Mean of Cellularity: 2.91 × 10^7
Bone marrow cells [3]; [6]
  Mean of CFU Formation: 324 CFU
  Mean of Cellularity: 5.76 × 10^7
Bone marrow cells [3]; [7]
  Mean of CFU Formation: 293 CFU
  Mean of Cellularity: 3.07 × 10^7
Bone marrow cells [3]; [8]
  Mean of CFU Formation: 287 CFU
  Mean of Cellularity: 3.07 × 10^7
Bone marrow cells [3]; Expt. 2, 5 μg twice daily i.p.
  Mean of Cellularity: 3.33 × 10^7
Bone marrow cells [3]; [9]
  Mean of Cellularity: 4.76 × 10^7
Bone marrow cells [3]; Expt. 2, 20 μg twice daily i.p.
  Mean of Cellularity: 3.38 × 10^7
Bone marrow cells [3]
  Effect on bone marrow cellularity and CFU formation (summary): Stimulates CFU & cellularity

## CCCCCCCC(=O)O[C@@H]1CN2CCC[C@@H](O)[C@@H]2[C@@H]1O [Compound 6, 1S-8a-β-2-alpha-octanoyloxyoctahydroindolizine-1-alpha-8-β-diol]
[1]; [5]
  IC50: 0.066 µg/mL (≈ 0.22 µM)
Bone marrow cells [4]; 1 day
  Mean of CFU Formation: 250 CFU
  Mean of Cellularity: 3.56 × 10^7
Bone marrow cells [4]; 2 days
  Mean of CFU Formation: 432 CFU
  Mean of Cellularity: 4.63 × 10^7
Bone marrow cells [4]; 3 days
  Mean of CFU Formation: 550 CFU
  Mean of Cellularity: 5.88 × 10^7
Bone marrow cells [4]; 4 days
  Mean of CFU Formation: 618 CFU
  Mean of Cellularity: 7.63 × 10^7
Bone marrow cells [4]; 5 days
  Mean of CFU Formation: 614 CFU
  Mean of Cellularity: 6.25 × 10^7
Bone marrow cells [4]; 6 days
  Mean of CFU Formation: 488 CFU
  Mean of Cellularity: 5.38 × 10^7
[2]
  IC50: 117 µM
Bone marrow cells [3]; Expt. 1, 5 μg twice daily i.p.
  Mean of CFU Formation: 200 CFU
  Mean of Cellularity: 2.57 × 10^7
Bone marrow cells [3]; [6]
  Mean of CFU Formation: 437 CFU
  Mean of Cellularity: 3.83 × 10^7
Bone marrow cells [3]; [7]
  Mean of CFU Formation: 295 CFU
  Mean of Cellularity: 2.73 × 10^7
Bone marrow cells [3]
  Effect on bone marrow cellularity and CFU formation (summary): Stimulates CFU and cellularity
  Effect on bone marrow cellularity and CFU formation compared with swainsonine (summary): not approximating swainsonine

## CCOC1CC(=O)N2C[C@@H](O)[C@@H](O)[C@H]2[C@@H]1O (stereo partly drawn) [Compound 23, 7-ethoxy-(1S,2R,8R,8aR)-1,2,8-trihydroxy-octahydro-5-oxyindolizine]
[1]; [5]
  IC50: > 1 µg/mL
[2]
  IC50: 43.2 µM
Bone marrow cells [3]
  optimal dose: 10 µg
  Effect on bone marrow cellularity and CFU formation compared with swainsonine (summary): comparable to

## O[C@@H]1[C@H](O)[C@H](O)CN2C[C@@H](O)[C@@H](O)[C@@H]12 [Compound 36, 1S-1-alpha-2-alpha-6β,7β-8β-pentahydroxy-8a-β-octahydroindolizine]
Bone marrow cells [3]; Expt. 1, 5 μg twice daily i.p.
  Mean of CFU Formation: 291 CFU
  Mean of Cellularity: 2.28 × 10^7
Bone marrow cells [3]; [6]
  Mean of CFU Formation: 545 CFU
  Mean of Cellularity: 5.27 × 10^7
Bone marrow cells [3]; [7]
  Mean of CFU Formation: 327 CFU
  Mean of Cellularity: 2.59 × 10^7

## Cc1ccc(C(=O)O[C@@H]2CN3CCC[C@@H](O)[C@@H]3[C@@H]2O)cc1 [Compound 41, 1S-8a-β-2-alpha-p-toluoyloxyoctahydroindolizine-1-alpha-8-β-diol]
[1]; [5]
  IC50: 1 µg/mL (≈ 3.43 µM)
[2]
  IC50: 343 µM
Bone marrow cells [3]; Expt. 1, 5 μg twice daily i.p.
  Mean of CFU Formation: 195 CFU
  Mean of Cellularity: 2.22 × 10^7
Bone marrow cells [3]; [6]
  Mean of CFU Formation: 359 CFU
  Mean of Cellularity: 2.99 × 10^7
Bone marrow cells [3]; [7]
  Mean of CFU Formation: 214 CFU
  Mean of Cellularity: 2.14 × 10^7
Bone marrow cells [3]
  Effect on bone marrow cellularity and CFU formation (summary): Stimulates CFU & cellularity

## O=C(O[C@@H]1CN2CCC[C@@H](O)[C@@H]2[C@@H]1O)c1ccc([N+](=O)[O-])cc1 [Compound 42, 1S-8a-β-2-alpha-p-nitorbenzoyloxyoctahydroindolizine-1-alpha-8-β-diol]
[1]; [5]
  IC50: 0.066 µg/mL (≈ 0.205 µM)
[2]
  IC50: 109 µM
Bone marrow cells [3]; Expt. 1, 5 μg twice daily i.p.
  Mean of CFU Formation: 213 CFU
  Mean of Cellularity: 2.68 × 10^7
Bone marrow cells [3]; [6]
  Mean of CFU Formation: 373 CFU
  Mean of Cellularity: 3.21 × 10^7
Bone marrow cells [3]; [7]
  Mean of CFU Formation: 242 CFU
  Mean of Cellularity: 2.63 × 10^7
Bone marrow cells [3]
  Effect on bone marrow cellularity and CFU formation (summary): Stimulates CFU & cellularity

## O=C1N[C@@H]2[C@@H](O)[C@@H](O)[C@H](O)[C@@H](CO)N2C1=O [Kefunensine, reference compound]
[1]; [5]
  IC50: 1 µg/mL (≈ 4.31 µM)
[2]
  IC50: 151 µM

## O[C@H]1[C@H]2[C@H](O)CCCN2C[C@H]1O [swainsonine, 1S-8a-β-octahydroindolizine-1-alpha-2-alpha-8-β-triol, reference compound]
[1]; 30 ug/ml L-PHA, read-out: I50
  IC50: ~0.02 µg/mL and ~100 nM
[1]; [5]
  IC50: 0.033 µg/mL (≈ 0.191 µM)
Bone marrow cells [3]; [6]
  Mean of CFU Formation: 550 CFU and 446 CFU
  Mean of Cellularity: 5.86 × 10^7 and 3.73 × 10^7
Bone marrow cells [3]; [9]
  Mean of Cellularity: 5.76 × 10^7
